Measurements taken from PMC6533912 (Journal of medicinal chemistry, 2018).
One block for each compound: values may come before it.

Experiments:
[1] = target: T1, human 5-HT2CR (unedited INI isoform) (Homo sapiens, UniProt P28335); assay: 5-HT-induced Cai2+ release assay in live h5-HT2CR-CHO cells; type: cell-based; conditions: for allosteric modulator (PAM/NAM) activity on 5-HT-induced Cai2+ release, in words: 1 nM test compound
T1 sequence (P28335 33-458): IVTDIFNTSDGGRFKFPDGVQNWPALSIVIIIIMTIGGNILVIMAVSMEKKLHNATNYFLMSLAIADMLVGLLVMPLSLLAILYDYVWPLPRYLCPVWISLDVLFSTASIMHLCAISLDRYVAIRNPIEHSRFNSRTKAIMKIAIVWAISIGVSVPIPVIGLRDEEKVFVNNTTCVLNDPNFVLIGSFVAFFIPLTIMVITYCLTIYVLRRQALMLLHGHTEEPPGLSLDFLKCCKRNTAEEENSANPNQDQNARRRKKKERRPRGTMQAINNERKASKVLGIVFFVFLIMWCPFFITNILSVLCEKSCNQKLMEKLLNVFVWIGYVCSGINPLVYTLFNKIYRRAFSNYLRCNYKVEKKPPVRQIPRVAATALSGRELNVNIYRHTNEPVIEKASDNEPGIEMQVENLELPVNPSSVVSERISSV

[2] = target: T2, human 5-HT2AR (Homo sapiens, UniProt P28223); assay: 5-HT-evoked Cai2+ release assay in live h5-HT2AR-CHO cells; type: cell-based; conditions: 1 pM, 1 nM, 1 μM
[3] = tested on: male Sprague–Dawley rats; assay: Spontaneous locomotor activity; type: in vivo; conditions: rat
[4] = tested on: male Sprague–Dawley rats; assay: WAY163909 vs saline drug discrimination assay; type: in vivo
[5] = tested on: male Sprague–Dawley rats; assay: Cocaine self-administration cue reactivity test; type: in vivo; conditions: 1 mg/kg ip, rat
[6] = target: 5-HT1BR (Homo sapiens, UniProt P28222); assay: NIMH PDSP radioligand displacement; conditions: read-out: % inhib (10 μm)
[7] = target: T3, dopamine receptor D4 (Homo sapiens, UniProt P21917); assay: NIMH PDSP radioligand displacement; conditions: read-out: % inhib (10 μm)
T3 sequence (P21917 1-419): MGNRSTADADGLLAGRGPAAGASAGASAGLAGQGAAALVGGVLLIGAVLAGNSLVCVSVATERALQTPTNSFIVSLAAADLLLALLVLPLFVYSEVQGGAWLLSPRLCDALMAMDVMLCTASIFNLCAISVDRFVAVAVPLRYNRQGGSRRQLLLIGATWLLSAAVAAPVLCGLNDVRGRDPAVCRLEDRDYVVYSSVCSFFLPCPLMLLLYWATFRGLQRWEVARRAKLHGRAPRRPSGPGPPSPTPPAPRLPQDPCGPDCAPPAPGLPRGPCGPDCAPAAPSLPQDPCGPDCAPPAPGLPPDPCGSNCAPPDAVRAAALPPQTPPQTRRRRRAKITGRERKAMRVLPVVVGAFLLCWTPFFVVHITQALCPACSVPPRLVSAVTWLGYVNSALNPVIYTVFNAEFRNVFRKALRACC

[8] = target: norepinephrine transporter (NET) (Homo sapiens, UniProt P23975); assay: NIMH PDSP radioligand displacement; conditions: 10 μM
[9] = target: T1, human 5-HT2CR (unedited INI isoform); conditions: cited from earlier work
[10] = target: T2, human 5-HT2AR; conditions: cited from earlier work

T2 sequence (P28223 whole entry): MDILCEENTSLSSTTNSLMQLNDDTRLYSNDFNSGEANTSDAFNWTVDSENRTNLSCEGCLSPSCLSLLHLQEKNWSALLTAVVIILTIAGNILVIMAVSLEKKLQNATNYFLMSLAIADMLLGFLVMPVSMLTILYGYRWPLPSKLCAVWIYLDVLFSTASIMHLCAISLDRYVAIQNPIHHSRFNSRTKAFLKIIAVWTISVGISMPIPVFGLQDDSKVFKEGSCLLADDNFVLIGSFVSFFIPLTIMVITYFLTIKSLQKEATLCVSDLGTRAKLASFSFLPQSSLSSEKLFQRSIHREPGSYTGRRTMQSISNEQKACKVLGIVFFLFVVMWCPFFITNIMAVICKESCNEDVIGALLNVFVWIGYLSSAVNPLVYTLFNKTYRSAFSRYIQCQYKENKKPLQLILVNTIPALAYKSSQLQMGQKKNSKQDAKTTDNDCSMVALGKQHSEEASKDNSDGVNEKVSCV
norepinephrine transporter (NET), sequence (P23975 whole entry, species assumed, canonical isoform): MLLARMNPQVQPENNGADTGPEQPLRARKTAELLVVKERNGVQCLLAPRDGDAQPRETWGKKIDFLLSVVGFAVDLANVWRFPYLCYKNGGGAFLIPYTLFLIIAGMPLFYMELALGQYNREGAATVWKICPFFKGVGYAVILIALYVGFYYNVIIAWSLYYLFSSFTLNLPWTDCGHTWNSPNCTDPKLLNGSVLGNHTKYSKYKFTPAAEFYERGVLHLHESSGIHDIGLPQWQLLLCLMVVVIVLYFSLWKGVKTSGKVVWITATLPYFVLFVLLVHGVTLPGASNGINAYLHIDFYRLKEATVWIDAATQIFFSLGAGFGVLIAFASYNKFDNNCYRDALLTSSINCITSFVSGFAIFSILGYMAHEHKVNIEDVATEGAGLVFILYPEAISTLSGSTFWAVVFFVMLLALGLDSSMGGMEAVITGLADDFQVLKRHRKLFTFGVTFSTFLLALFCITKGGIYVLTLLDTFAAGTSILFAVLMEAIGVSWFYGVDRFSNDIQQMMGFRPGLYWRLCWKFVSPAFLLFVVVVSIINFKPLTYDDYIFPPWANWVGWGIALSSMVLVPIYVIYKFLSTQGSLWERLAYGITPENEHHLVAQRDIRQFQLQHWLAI
5-HT1BR, sequence (P28222 whole entry): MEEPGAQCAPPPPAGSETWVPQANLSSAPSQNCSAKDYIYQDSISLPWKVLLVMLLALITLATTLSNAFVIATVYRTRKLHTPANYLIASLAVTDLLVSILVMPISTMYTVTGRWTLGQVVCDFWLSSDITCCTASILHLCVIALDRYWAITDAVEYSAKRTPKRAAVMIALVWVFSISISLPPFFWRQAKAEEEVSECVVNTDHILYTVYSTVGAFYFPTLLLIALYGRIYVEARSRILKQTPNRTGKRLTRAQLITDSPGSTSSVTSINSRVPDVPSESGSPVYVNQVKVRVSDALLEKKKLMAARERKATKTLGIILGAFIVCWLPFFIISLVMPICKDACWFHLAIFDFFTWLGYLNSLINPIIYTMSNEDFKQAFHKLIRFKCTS

- allosteric modulator (PAM/NAM) activity on 5-HT-induced Cai2+ release, in words [1]: no significant PAM activity
Compound: CCCCCCCCCCC[C@@H]1CCN[C@H](C(=O)O)C1 [Compound 7, (cis-2,4)-4-Undecylpiperidine-2-carboxylic acid]

Compound: CCCCCCCCCCC[C@@H]1CCN[C@H](C(=O)NCC(O)CO)C1 (relative stereo) [Compound 16, cis-4-Undecylpiperidine-2-carboxylic Acid (2,3-Dihydroxypropyl)amide]
- effect on 5-HT potency (leftward shift of 5-HT curve) ([1]; 1 pM, 1 nM, 1 μM): did not impact 5-HT potency
- shift of 5-HT-evoked Cai2+ release concentration-response curve ([1]; 1 pM, 1 nM, 1 μM): upward shift of 5-HT-evoked Cai^2+ release at multiple concentrations
- allosteric modulator (PAM/NAM) activity on 5-HT-induced Cai2+ release, in words [1]: significant PAM activity
- intrinsic agonist efficacy to induce Cai2+ release in the absence of 5-HT ([1]; 1 nM, compound alone): did not stimulate Cai^2+ release
- change in 5-HT Emax or EC50 at the 5-HT2AR [2]: no change in the 5-HT Emax or EC50
- ambulations ([3]; 1 mg/kg ip): not associated with suppressed ambulations
- mean total ambulations in 30 min vs saline ([3]; 5 mg/kg ip): significantly reduced mean total ambulations
- mean total vertical activity in 30 min vs saline ([3]; 5 mg/kg ip): significantly reduced mean total vertical activity
- substitution for the WAY163909 stimulus, in words ([4]; 0.125–1.0 mg/kg ip, given alone): partially substituted for WAY163909
- previously active lever presses reinforced by the discrete cue complex vs saline ([5]; 15 min before cue reactivity session): significantly lower
- inactive lever presses vs saline [5]: did not significantly alter inactive lever presses
- inhibition at 10 µM [6]: -18.1%
- inhibition at 10 µM [7]: -14.2%
- displacement of radioligand binding [8]: did not displace binding

Compound: CCCCCCCCCCC[C@@H]1CCN[C@H](C(=O)N[C@@H]([C@H]2O[C@H](SC)[C@H](O)[C@@H](O)[C@H]2O)[C@H](C)Cl)C1.Cl [Compound 1]
- shift of the 5-HT-evoked Cai2+ response curve ([9]; 1 nM, previous titration studies): leftward shift of the 5-HT-evoked Cai^2+ response curve
- intrinsic agonist activity at the 5-HT2CR [9]: no intrinsic agonist activity
- intrinsic agonist activity at the 5-HT2AR [10]: no intrinsic agonist activity

- allosteric modulator (PAM/NAM) activity on 5-HT-induced Cai2+ release, in words [1]: no significant PAM activity
Compound: CCCCCCCCCCC[C@@H]1CCN[C@H](C(=O)NCCO)C1 (relative stereo) [Compound 8, cis-N-(2-Hydroxyethyl)-4-undecylpiperidine-2-carboxamide]

Compound: CCCCCCCCCCC[C@@H]1CCN[C@H](C(=O)NC[C@@H](O)CO)C1 (mixture of isomers) [Compound 16a, cis-N-((R)-2,3-Dihydroxypropyl)-4-undecylpiperidine-2-carboxamide]
- allosteric modulator (PAM/NAM) activity on 5-HT-induced Cai2+ release, in words [1]: lacked appreciable PAM activity

Compound: c1cc2c3c(c1)[C@H]1CCC[C@H]1N3CCNC2 [WAY163909, (7b-R,10a-R)-1,2,3,4,8,9,10,10a-octahydro-7bH-cyclopenta[b][1,4]diazepino[6,7,1hi]indole]
- WAY163909-appropriate responding ([4]; 0.5 mg/kg ip, given alone): ~30%
- dose predicted to elicit 50% of WAY163909-lever responding (ED50) ([4]; ip, rats trained on WAY163909 0.75 mg/kg vs saline, log-probit): 0.53 mg/kg
- WAY163909-appropriate responding ([4]; training dose 0.75 mg/kg ip): Greater than 95%

Compound: CCCCCCCCCCC[C@@H]1CCN[C@H](C(=O)NC[C@H](O)CO)C1 (mixture of isomers) [Compound 16b, cis-N-((S)-2,3-Dihydroxypropyl)-4-undecylpiperidine-2-carboxamide]
- allosteric modulator (PAM/NAM) activity on 5-HT-induced Cai2+ release, in words [1]: displayed significant PAM activity
